Reference: patent publication US20230146870A1, “METHOD TO QUANTIFY AFFINITY AND SELECTIVITY OF SMALL MOLECULES FOR PROTEINS IN LIVING CELLS” (Ohio State Innovation Foundation, priority 2021, published 2023)
Values joined by “and” are separate entries in the source; they are usually repeats but may differ in a detail not shown here. Equal entries are not always repeated. “Also recorded” adds a separate entry of the source. Where two headings read alike, the source gives them in different places.

Assays:
[1] = cited from earlier work
[2] = test system: microtubules (taxane binding site) in living HeLa cells; test: Competition binding assay with PB-GABA-Taxol in living HeLa cells (cellular Ki); conditions: for Ki: read-out: cellular Ki, PB-GABA-Taxol 1.5 μM, verapamil 100 μM, 37° C., 4% FBS, 3 h
Protocol: In this assay the cellular Kd was measured by varying the concentration of the fluorescent probe added to cells at equilibrium as established by kinetic assays of probe uptake. Total binding of this probe to specific and non-specific sites in cells in the presence of the efflux inhibitor verapamil was determined by flow cytometry. Non-specific binding was quantified separately by addition of excess paclitaxel with the probe under the same conditions. Subtraction of the linear non-specific binding contribution from the total binding curve was used analyze specific binding of the probe to tubulin of microtubules. Measurement of this cellular dissociation constant under equilibrium conditions further allowed conversion of the half-maximal inhibitory concentration (IC50) of unlabeled compounds into cellular inhibitory constants using an adaptation of the Cheng-Prusoff equation^44 for competitive modulators (Ki) or the allosteric equation^45 for non-competitive modulators (Kb and the cooperativity factor α) as implemented by GraphPad Prism.

[3] = test system: Taxol binding site in living cells; conditions: previously reported; read-out: Ki by confocal microscopy; cited from earlier work
[4] = test system: microtubule network of HeLa cells (mScarlet-α-Tubulin); test: Confocal microscopy of HeLa cells transfected with mScarlet-α-Tubulin; type: cell-based; conditions: 1 h at 37° C.
Protocol: (FIG. 28C) Characterization of fluorescent microtubule phenotypes in HeLa cells transiently transfected with mScarlet-a-Tubulin and treated with the microtubule modulators (1 h at 37° C.). […] Scale bars=10 μm.
Cells were washed with PBS before treatment with PB-GABA-Taxol (100 nM) and (±)-verapamil hydrochloride (100 μM), with or without paclitaxel (10 μM) as a competitor, in phenol red-free DMEM supplemented with 10% FBS. Cells were incubated at 37° C. for 3 h prior to imaging by confocal microscopy. For experiments using HeLa cells transfected with mScarlet-α-tubulin, transient transfection was performed using a Invitrogen Lipofectamine 3000 Transfection kit (Thermo, L3000-075). Transfection used a 1× dose of lipid in OptiMEM (4% FBS) for 18 hours before washing of cells with PBS and treatment with the microtubule modulator for 1 h at 37° C.

albumin = albumin (Homo sapiens, UniProt P02768); conditions: cited from earlier work
albumin, sequence (P02768 25-609, species assumed): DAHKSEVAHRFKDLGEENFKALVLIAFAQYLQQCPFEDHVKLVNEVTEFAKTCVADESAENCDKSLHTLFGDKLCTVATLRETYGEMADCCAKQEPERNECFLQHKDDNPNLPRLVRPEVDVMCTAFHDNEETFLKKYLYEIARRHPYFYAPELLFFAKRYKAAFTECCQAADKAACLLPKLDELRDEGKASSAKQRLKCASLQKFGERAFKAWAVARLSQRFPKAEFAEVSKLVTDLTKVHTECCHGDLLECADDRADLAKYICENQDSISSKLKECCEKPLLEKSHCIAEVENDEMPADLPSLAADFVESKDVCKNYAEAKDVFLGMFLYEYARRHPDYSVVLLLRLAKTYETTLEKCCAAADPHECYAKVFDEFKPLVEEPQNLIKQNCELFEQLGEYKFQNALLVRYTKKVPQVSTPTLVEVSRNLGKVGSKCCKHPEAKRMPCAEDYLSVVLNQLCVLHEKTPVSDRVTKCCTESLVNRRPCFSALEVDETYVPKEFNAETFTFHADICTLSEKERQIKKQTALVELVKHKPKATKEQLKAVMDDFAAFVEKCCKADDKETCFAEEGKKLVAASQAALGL

[5] = target: crosslinked / purified microtubules; conditions: previously reported; read-out: biochemical Ki for microtubules; cited from earlier work
rat EGFP-N2-PKCγ = target: T1, rat EGFP-N2-PKCγ (Rattus norvegicus, UniProt P63319); test: Confocal video microscopy of PKCγ trafficking in HEK293 cells; type: cell-based; conditions: 33 at 1 μM, after 10 min
T1 construct: transiently transfected with DNA encoding the full-length rat PKCγ-EGFP; host or cells: HEK293
Excerpt: Blue fluorescence of 33 is shown in the right panels (Ex. 405 nm, Em. 410-495 nm, Gain 50), green fluorescence of transiently transfected EGFP-N2-PKCγ protein is shown in the middle panels (Ex. 488 nm, Em. 500-650 nm, Gain 700), and DIC images are shown in the left panels. Trafficking of PKCγ-mEGFP protein to membranes induced by 33 can be observed Images were acquired with a Leica SP8 microscope (63× objective). Scale bar=25 μm.
It appears that this is due to efflux of this compound from cells mediated by efflux transporters such as Pgp. To explore this idea, two-color confocal video microscopy was used. Briefly, HEK293 cells were transiently transfected with commercially available plasmid DNA encoding rat PKCγ fused to GFP (EGFP-N2-PKCγ, Addgene Plasmid #21204).^84 The HEK293 cell line is known to expresses multiple efflux transporters including Pgp (MDR1/ABCB1).^85 The fluorescence of GFP was monitored by excitation with a 488 nm laser and emission collected between 500-650 nm. […] In addition, the cell morphology was recorded using differential interference contrast microscopy (DIC). The localization of the fluorescent probe and the GFP fusion protein was recorded using video confocal microscopy immediately after treatment of transfected cells with 33. […]

C1A-C1A-EYFP (PKCγ) = target: T2, C1A-C1A-EYFP (PKCγ) (UniProt P63319); test: Cellular binding by flow cytometry, HEK293 cells expressing C1A-C1A-EYFP (PKCγ); conditions: verapamil 100 μM
T2 construct: apparent Kd; other: verapamil 100 μM, 90 min, 37° C., DMEM high glucose, 4% FBS; half time (t1/2) of cellular fluorescence; other: 33 at 5 μM, verapamil 100 μM, room temperature; fused on or other part: EYFP at the C-terminus; the C1A module is present twice in one chain
Excerpt: The dissociation constant can be defined as the ratio of koff divided by kon. This value is also the concentration where the ligand occupies 50% of the receptor.^94 Kd is only meaningful when equilibrium is reached, where the ligand-receptor complex is formed at the same rate as it dissociates into free ligand and receptor (FIG. 15). This binding equilibrium is established when essentially no further change in the amount of bound complex is observed over time. To evaluate the time needed for equilibration, we treated HEK293 cells that overexpress C1A-C1A-EYFP (PKCγ) with 33 (0 and 5 μM) in the presence or absence of verapamil (100 μM) and cellular fluorescence was measured by flow cytometry as a function of time (FIG. 18A). […] This optimization was used to establish a 90 min equilibration period for further assay optimization.
The presence of fetal bovine serum (FBS) in the culture media also influenced the binding by sequestering the free ligand. The assay conditions were finalized using HEK293 cells incubated with the probe in the presence of verapamil for 90 min at 37° C. in DMEM media (high glucose, 4% FBS).

HEK293 cells = test: Viability of HEK293 cells during probe treatment by flow cytometry; type: cell-based; conditions: 33 at 1 μM, verapamil 0, 25 or 100 μM, 1 h
Protocol: FIGS. 14A and 14B show quantification of fluorescence (FIG. 14A) and viability (FIG. 14B) upon treatment of HEK293 cells with compound 33 (1 μM) and verapamil (0, 25 or 100 μM) for 1 h. Total [DMSO]=0.2%. Error bars represent SD (N=3). Statistical significance analyzed by one-way ANOVA (GraphPad Prism 9). **, P<0.01; ****, P<0.0001. Samples were analyzed with a Beckman Coulter Cytoflex flow cytometer. (Ex. 405 nm/Em. […]). […] Compound 33 is non-toxic under these conditions.
FIGS. 16A-16D show quantification of non-specific binding and cell viability after treatment for 1 h at 37° C. with compound 33 (2-fold serial dilution from 5 μM) and verapamil (75 μM) in the presence of different competitors (PMA or non-fluorescent PB-carbamate 8, at 0, 5 and 10 μM). Total [DMSO]=0.3%. (FIG. 16A) Parental HEK293 cells analyzed after treatment with 33 in the presence or absence of PMA or compound 8. […] Samples were analyzed with a Beckman Coulter Cytoflex flow cytometer and gated to analyze living cells (Ex. 405 nm; Em. 450/45 nm).
The efflux of this fluorescent probe was next studied by flow cytometry. […] The blue fluorescent signal (405 nm laser) of HEK293 cells overexpressing green fluorescent full-length PKCγ-EGFP was elucidated (the median protein concentration was determined to be ˜5.0 μM as measured by flow cytometry by comparison with Spherotech rainbow bead standards as described herein). […]

Jurkat cells = test: Cellular viability assay, Jurkat lymphocytes, 48 h, flow cytometry (Example 2); type: cell-based; conditions: Homo sapiens, Jurkat, read-out: toxicity towards Jurkat cells, IC50
Protocol: The impact of membrane transporters on the toxicity profile of 49 was also studied.
Jurkat lymphocytes were seeded into a 96-well plate in fresh complete medium at 2.5×10^5 cells/mL and 200 μL per well. All compounds were serial diluted in DMSO and added to complete media to achieve a 1:1000 dilution factor (0.10% DMSO in each well). […] The total cell-count for each well was determined by flow cytometry and staining with propidium iodide was used to identify populations of live cells (only dead cells are stained by PI). Counts of viable cells for each treatment, determined in triplicate, were used to generate dose-response curves. These curves were fitted with non-linear regression using an inhibitor vs. response variable slope […] model (GraphPad Prism 9) to determine IC50 values.

[6] = target: C1 domain of human PKD (purified C1AB domain) (Homo sapiens, UniProt Q15139); test: [3H]PDBu competition assay with purified C1AB domain of PKD; type: binding
C1 domain of human PKD (purified C1AB domain), sequence (Q15139 whole entry, the tested form may be a part): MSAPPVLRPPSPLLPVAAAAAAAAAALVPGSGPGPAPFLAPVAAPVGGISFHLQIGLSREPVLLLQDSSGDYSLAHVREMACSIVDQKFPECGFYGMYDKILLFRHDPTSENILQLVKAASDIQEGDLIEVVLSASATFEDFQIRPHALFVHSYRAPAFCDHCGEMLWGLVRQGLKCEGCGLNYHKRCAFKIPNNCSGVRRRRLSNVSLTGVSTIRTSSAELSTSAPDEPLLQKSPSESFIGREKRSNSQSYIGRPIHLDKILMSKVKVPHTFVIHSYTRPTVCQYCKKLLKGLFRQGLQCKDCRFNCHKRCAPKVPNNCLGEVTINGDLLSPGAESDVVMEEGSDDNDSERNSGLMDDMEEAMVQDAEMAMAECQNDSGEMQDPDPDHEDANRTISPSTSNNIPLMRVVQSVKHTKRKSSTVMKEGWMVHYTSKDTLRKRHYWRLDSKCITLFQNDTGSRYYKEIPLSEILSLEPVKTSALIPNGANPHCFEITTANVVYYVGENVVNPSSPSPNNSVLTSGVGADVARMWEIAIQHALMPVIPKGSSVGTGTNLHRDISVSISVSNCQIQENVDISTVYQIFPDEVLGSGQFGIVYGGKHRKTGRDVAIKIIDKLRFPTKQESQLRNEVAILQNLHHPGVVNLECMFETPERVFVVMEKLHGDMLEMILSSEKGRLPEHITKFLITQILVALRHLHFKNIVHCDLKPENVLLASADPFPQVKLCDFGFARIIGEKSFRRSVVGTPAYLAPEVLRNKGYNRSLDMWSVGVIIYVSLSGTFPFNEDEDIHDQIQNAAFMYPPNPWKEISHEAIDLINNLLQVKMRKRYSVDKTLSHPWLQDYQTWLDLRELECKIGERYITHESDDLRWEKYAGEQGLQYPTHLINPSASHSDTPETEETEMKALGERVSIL
Protocol: Affinities were measured with a radioactive […]
The results of the biochemical binding assays with cellular binding assays were used to quantitatively investigate differences between conventional biochemical measurements of Ki values with this novel method for determination of Ki values in cellule.

mouse PKCβI-mVenus = target: T3, mouse PKCβI-mVenus (Mus musculus, UniProt P68404); test: Apparent cellular Kd by flow cytometry, HEK293 cells overexpressing PKCβI-mVenus (Example 2); type: binding
T3 construct: eight plasmids encoding full length mouse PKC isozymes fused to; expressed in transfected cells; host or cells: HEK293
T3 sequence (P68404 whole entry, the tested form may be a part): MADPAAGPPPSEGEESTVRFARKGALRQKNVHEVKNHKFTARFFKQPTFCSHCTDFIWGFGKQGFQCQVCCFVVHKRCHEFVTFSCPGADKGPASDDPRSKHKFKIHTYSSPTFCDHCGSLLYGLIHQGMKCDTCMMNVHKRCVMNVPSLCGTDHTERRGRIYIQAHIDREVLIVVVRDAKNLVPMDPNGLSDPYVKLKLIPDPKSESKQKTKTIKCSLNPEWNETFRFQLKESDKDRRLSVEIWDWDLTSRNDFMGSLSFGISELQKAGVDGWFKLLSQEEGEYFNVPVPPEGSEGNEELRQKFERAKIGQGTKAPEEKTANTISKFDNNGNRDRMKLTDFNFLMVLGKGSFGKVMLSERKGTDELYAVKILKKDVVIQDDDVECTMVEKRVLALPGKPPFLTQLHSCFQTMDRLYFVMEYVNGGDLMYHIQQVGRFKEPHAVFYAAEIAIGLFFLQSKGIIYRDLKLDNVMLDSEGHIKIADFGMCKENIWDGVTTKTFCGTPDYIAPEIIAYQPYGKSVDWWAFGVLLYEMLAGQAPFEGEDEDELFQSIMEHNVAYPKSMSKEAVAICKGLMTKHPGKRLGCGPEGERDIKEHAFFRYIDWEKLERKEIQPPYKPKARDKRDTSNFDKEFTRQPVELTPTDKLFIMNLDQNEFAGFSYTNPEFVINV
Protocol: The apparent Kd values of these fluorescent probes were measured using different PKC isozymes (e.g., PKCβI, FIGS. 20A-20D). HEK293 cells were transfected to overexpress PKCβ-mVenus and treated with probes in the presence of verapamil (100 μM) as an inhibitor of efflux.

## O=C(O)c1cc2cc(F)c(O)c(F)c2oc1=O [Pacific Blue™]
[1]
  phenol pKa: 3.7

## C/C(=C\c1csc(C)n1)[C@@H]1C[C@@H]2O[C@]2(C)CCC[C@H](C)[C@H](O)[C@@H](C)C(=O)C(C)(C)[C@@H](O)CC(=O)N1 [ixabepilone]
[2]
  Ki: 10 nM
[3]
  Ki: 7.6 ± 1.6 nM

## CC(=O)O[C@H]1C(=O)[C@@]2(C)[C@H]([C@H](OC(=O)c3ccccc3)[C@]3(O)C[C@H](OC(=O)[C@H](O)[C@@H](NC(=O)c4ccccc4)c4ccccc4)C(C)=C1C3(C)C)[C@]1(OC(C)=O)CO[C@@H]1C[C@@H]2O [paclitaxel]
[2]; incubation 1 h
  decrease of apparent affinity vs incubation for 3 h or 4 h: 3 fold
[2]; incubation 2 h
  decrease of apparent affinity vs incubation for 3 h or 4 h: 2 fold
[2]; probe concentration 3 μM
  underestimation of cellular Ki: 12 fold
[2]
  Ki: 22 nM
[2]; σ=15% (150 nM β-tubulin/well)
  decrease of apparent affinity (cellular Ki) by ligand depletion: 2.3 fold
[2]; σ=30% (300 nM β-tubulin/well)
  decrease of apparent affinity (cellular Ki) by ligand depletion: 4.7 fold
[4]
  fluorescent microtubule phenotype: increased numbers of microtubule fibers
albumin
  Kd: 120 nM
[5]
  Ki: 19 nM and 27 nM and 31 nM

## CC1=C[C@H]2[C@@]3(O)[C@H](C)[C@@H](O)[C@]4(OC(=O)N(C)CCCCCCCCCCCCN(C)C(=O)c5cc6cc(F)c(O)c(F)c6oc5=O)[C@H]([C@@H]3C=C(CO)C[C@]2(O)C1=O)C4(C)C [probe 33, (1aR,1bS,4aR,7aS,7bS,8R,9R,9aS)-4a,7b,9-trihydroxy-3-(hydroxymethyl)-1,1,6,8-tetramethyl-5-oxo-1,1a,1b,4,4a,5,7a,7b,8,9-decahydro-9aH-cyclopropa[3,4]benzo[1,2-e]azulen-9a-yl (12-(6,8-difluoro-7-hydroxy-N-methyl-2-oxo-2H-chromene-3-carboxamido)dodecyl)(methyl)carbamate]
Rat EGFP-N2-PKCγ
  trafficking of PKCγ: translocation of PKCγ to the plasma membrane
C1A-C1A-EYFP (PKCγ); 33 at 5 μM, room temperature
  half time (t1/2) of cellular fluorescence: about 32 min
C1A-C1A-EYFP (PKCγ); 90 min, 37° C., DMEM high glucose, 4% FBS, read-out: apparent Kd
  Kd: 6.4 µM
HEK293 cells
  toxicity to HEK293 cells: non-toxic; also recorded: no toxicity
Jurkat cells
  IC50: ~12 µM
[6]; Ki for purified C1AB domain of PKD
  Ki: 30 nM
[6]; read-out: Ki for purified C1AB domain of PKD
  Ki: ~30 nM
Mouse PKCβI-mVenus
  Kd: 2700 nM
